System: trigeminal neurons that innervate the dural vasculature
Experiment: in vivo electrophysiological recordings from single unit dural-responsive trigeminal neurons (preclinical model of migraine)
Conditions: rat; for normal cutaneous facial noxious and innocuous somatosensory responses: same neurons, extracranial somatosensory processing; for ongoing neuronal firing of central trigeminal neurons / response to pain-producing stimulation of the dura mater of central trigeminal neurons: intravenous administration, P<0.05 vs. baseline; for ongoing neuronal firing of central trigeminal neurons: FIGS. 1A & 1E; for response to pain-producing stimulation of the dura mater of central trigeminal neurons: FIGS. 1B & 1F
Description: FIGS. 1A-1H depict a preclinical model of migraine manipulates the pain responsive sensory neurons that innervate the dura mater and its associated blood vessels. The cell bodies of these sensory neurons reside in the trigeminal ganglia. Measuring dural-responsive trigeminal neuronal responses in animals has proven to be extremely predictive of therapeutic efficacy for abortive migraine treatments, such as triptans, and it also translates to migraine preventives. Here we show in vivo electrophysiological recordings in a rat from single unit trigeminal neurons that innervate the dural vasculature. […] Intravenous administration of the migraine abortive, naratriptan (FIGS. 1A-1D) and the migraine preventive, amitriptyline (FIGS. 1E-1H), inhibited ongoing neuronal firing (FIGS. 1A & 1E) and the response to pain-producing stimulation of the dura mater (FIGS. 1B & 1F) of central trigeminal neurons. […] In the same neurons, naratriptan and MRS5980 had no effect on normal cutaneous facial noxious and innocuous somatosensory responses. Amitriptyline, however did affect this normal somatosensory processing. * P<0.05 vs. baseline.

Row | Structure (SMILES) | inhibiting neuronal responses (compared with naratriptan and amitriptyline) (dural-responsive trigeminal neurons) | normal cutaneous facial noxious and innocuous somatosensory responses | ongoing neuronal firing of central trigeminal neurons | response to pain-producing stimulation of the dura mater of central trigeminal neurons
1 | CNC(=O)[C@@]12C[C@@H]1[C@@H](n1cnc3c(NC)nc(C#Cc4ccc(Cl)s4)nc31)[C@H](O)[C@@H]2O [MRS5980] | equally efficacious | no effect |  | 
2 | CN(C)CCC=C1c2ccccc2CCc2ccccc21 [amitriptyline] |  | did affect | inhibited | inhibited
3 | CNS(=O)(=O)CCc1ccc2[nH]cc(C3CCN(C)CC3)c2c1 [naratriptan] |  | no effect | inhibited | inhibited

From patent US12397010B2, “Treatment of chronic headaches” (Saint Louis University, priority 2019, dated 2025)
